Data published in patent US10980850B2, “Use of IAP inhibitor and oncolytic virus in preparation of anti-tumor drug” (Guangzhou Virotech Pharmaceutical Co., Ltd., priority 2016, dated 2021).

Key:
[1] = test system: pancreatic cancer; settings: 10 μmol/L alone; cells without drugs 17%; cited from earlier work
[2] = test system: human colorectal cancer cell line HCT116; experiment: MTT survival rate of HCT116 cells (LCL161/Birinapant, M1 virus); format: cell-based; settings: MTT 72 hours, 5 μM LCL161, MOI of M1 not stated (FIG. 2(A))
Protocol: a) Inoculation of cells and administration treatment: cells in the exponential growth phase were selected and added into a DMEM complete culture medium (containing 10% fetal bovine serum and 1% penicillin/streptomycin (Life Technologies)) to prepare a cell suspension. The cells were inoculated into a 96-well culture plate at a density of 4×10^3/well. After 12 hours, the cells were completely adherent to the wells. The experiment was divided into a control group and a single drug group (using 5 μM LCL161 or Birinapant alone), a group infected with M1 and a group treated with LCL161/M1 or Birinapant/M1. In M1-containing assays, virus was provided at varying MOI. The concentration of LCL161 or Birinapant was 5 μM • b) Reaction of MTT with succinate dehydrogenase in the cells: 72 hours after culture, 20 μl MTT (5 mg/ml) was added into each well, and was incubated for a further 4 hours. After incubation, granular blue and purple formazan crystals formed in the living cells were observed by microscopic examination. • c) Dissolution of formazan particles: those cultures having cells with formazan crystals were further processed as follows. […] The optical density (OD value) of each well was detected in an enzyme linked detector at a wavelength of 570 nm. […] The calculated survival rate of the cells=OD value of the drug treatment group/OD value of the control group×100%. […]

[3] = test system: transplantable tumor of HCT116 cancer strain; experiment: Transplantable tumor of HCT116 in nude mice; format: in vivo, BALB/c nude mice; settings: HCT116 tumors
Protocol: (§1) The present experiment was performed as a randomized and single-blinded trial. 5×10^6 HCT116 or 1×10^7 Huh7 cells were subcutaneously injected into dorsa of 4-week-aged BALB/c nude mice. When the size of tumors reached 50 mm^3, the mice were divided into groups, including an untreated control group (Control), a group treated with LCL161 alone (i.p. 20 mg/kg/d), a group infected with M1 alone (transplantable tumor of HCT116 cancer strain was injected with M1 virus via tail vein (2×10^6 PFU/time), and transplantable tumor of Huh7 cancer strain was injected with M1 virus via tail vein (5×10^5 PFU/time)) and a group treated with LCL161/M1 (LCL161 and M1 virus were administered in the same way at the same dose), and four injections was performed continuously (for HCT116, injection was conducted on day 5, day 6, day 7, and day 8; for Huh7, injection was conducted on day 10, day 11, day 12, and day 13). The weight, length and width of the tumor were measured every two days, and the volume of the tumor was calculated according to the formula: (length×width^2)/2. After measuring the volume of the tumor, one way ANOVA statistics was carried out, wherein *** indicates p<0.001, ** indicates p<0.01, and * indicates p<0.05.

[4] = test system: transplantable tumor of Huh7 cancer strain; experiment: Transplantable tumor of Huh7 in nude mice; format: in vivo, BALB/c nude mice; settings: Huh7 tumors; LCL161 i.p. 20 mg/kg/d; M1 tail vein 5×10^5 PFU/time; four injections day 10-13
Protocol: as §1

[5] = test system: Caspase 3/7, 8, and 9; experiment: Caspase activity (chemiluminescence/MTT) in HCT116 cells; format: cell-based, human; settings: M1 1 MOI, LCL161 5 μM, 72 hours, vs control
Protocol: (§2) The cells in the exponential growth phase were selected and added into a DMEM complete culture medium (containing 10% fetal bovine serum and 1% penicillin/streptomycin (Life Technologies)) to prepare a cell suspension. The cells were inoculated into a 96-well culture plate at a density of 4×10^3/well. After 12 hours, the cells were completely adherent to the walls of the culture plate. In this experiment, cultures were divided into a control group, a single drug group (using LCL161 alone), a group infected with M1, and a group treated with combined LCL161/M1. The doses used were as follows: cells were infected with M1 at 1 MOI ([…]) or 0.1 MOI (Huh7 cells), and LCL161 was added at a concentration of 5 μM. Each of the above mentioned treatment groups was divided in four for detecting MTT and the activities of Caspase 3/7, 8 and 9. 72 hours after treatment, the reagent for detecting Caspase3/7, 8 and 9 was added into each well on the basis of the volume, and the resulting wells were placed into the incubator for a further half hour. The liquid was absorbed into the opaque 96 well plate for measuring the chemical luminous intensity by a microplate reader. Meanwhile, MTT was detected to calculate the survival rate of the cells. The activity of Caspase was standardized by the ratio of chemiluminescent value to MTT value.

[6] = test system: Caspase 3/7, 8, and 9; experiment: Caspase activity (chemiluminescence/MTT) in Huh7 cells; format: cell-based, human; settings: M1 0.1 MOI, LCL161 5 μM, 72 hours, vs control
Protocol: as §2

## Nc1ccn([C@@H]2O[C@H](CO)[C@@H](O)C2(F)F)c(=O)n1 [Gemcitabine]
[1]
  apoptosis rate: 58%

## CN[C@@H](C)C(=O)N[C@H](C(=O)N1CCC[C@H]1c1nc(C(=O)c2ccc(F)cc2)cs1)C1CCCCC1 [LCL161]
[2]
  survival rate: 92.6%
[3]; LCL161 i.p. 20 mg/kg/d, M1 tail vein 2×10^6 PFU/time, four injections day 5-8
  reduction in tumor volume as compared with the control group: 29.15%
[3]; same dosing, vs control group
  tumor volume (in words): only a slight reduction in tumor volume
[4]
  reduction in tumor volume as compared with the control group: 18.1%
[5]
  activities of Caspase 3/7, 8, and 9: only slightly up-regulated
[6]
  activities of Caspase 3/7, 8, and 9: only slightly up-regulated
